From US10285986B2, “Compounds and anti-tumor NQO1 substrates” (The Board of Trustees of the University of Illinois, priority 2011, dated 2019)
Converted amounts (≈) assume the structure as drawn. “And” between values parts separate entries of the source, which are not always exact repeats. Equal values may be shown once. Read-outs that look alike come from different tables or passages of the source.

Assays:
MCF-7 cells = assay: Cytotoxicity to MCF-7 cells with or without 25 μM dicoumarol (sulforhodamine B assay); type: cell-based, human; conditions: for IC50: Homo sapiens; for Fold Protection of MCF7 cells w/ 25 μM dicoumarol: Table 1
Method: The NQO1-dependent cytotoxicity of the first set of derivatives was determined in MCF-7 cells which express high levels of NQO1. Cells were exposed to DNQ for 2 hours in the presence or absence of 25 μM DIC. The media was then removed and cells were washed once with media then fresh media was added and the cells were incubated for 72 hours. Cell death was assessed using the sulforhodamine B assay previously described. […] Substitution off the nitrogen appeared well tolerated (4-14 and 4-15).
The DNQ derivatives synthesized were assayed for their toxicity to MCF-7 cells with or without DIC. The data from these experiments is organized in Table 4.2. […] This tolerance of sterically-demanding substituents corresponds with a flexible and promiscuous NQO1 active site. The poor activity of hydroxyl derivative 4-41 may be a result of either poor binding with the largely hydrophobic NQO1 active site or with an excessively strong substrate-enzyme interaction because of hydrogen bonding.

NQO1 = NQO1 (Homo sapiens, UniProt P15559); assay: NQO1 enzymatic measurements in vitro; type: biochemical; conditions: 1 μM substrate
Method: As further evidence that the activity of these DNQ derivatives is dependent on their ability to be reduced by NQO1, full enzymatic measurements in vitro were performed. We found a strong correlation between catalytic efficiency of substrates in vitro and their cell culture toxicity. […] This provides strong evidence that the cytotoxicity of DNQ and its derivatives are dependent primarily upon the activity of NQO1 within the cell.

[1] = Aqueous solubility in pH 7.4 PBS by LC-MS; type: physicochemical; conditions: phosphate buffered saline, pH 7.4, aqueous buffer, thermodynamic from solid, PBS pH 7.4; Table 4.3
Method: The aqueous solubility of DNQ at pH 7.4 in phosphate buffered saline (PBS) was measured by LC-MS. DNQ was sonicated for 30 minutes in PBS then undissolved solid was removed by filtration through a 0.45 μm syringe filter and the filtrate was analyzed by LC-MS (λ=275 nm, ESI-TOF in negative mode). The optimal sonication time was determined by sonicating DNQ for 1, 5, 10, and 30 minutes. While the concentration of DNQ in solution increased substantially between 1, 5, and 10 minutes, there was only a minor difference between 10 and 30 minutes. During the 30 minute sonication the water bath warmed to 45° C. (samples were cooled to room temperature before filtration). A calibration curve was generated from 1-100 μM by dissolving DNQ in methanol to a concentration of 500 μM and making dilutions of this stock in 80:20 water:methanol. The calibration curve (measure by UV absorbance) was linear over this range; 1 μM was approximately the limit of detection. […] The solution was very pale yellow.
The aqueous solubility of the compounds was determined by an LC-MS assay as described in the specification above. We applied the calibration curve generated for DNQ to the derivatives under the assumption that the UV profile of the derivatives of DNQ would be similar to that of DNQ.
After sonication and filtration most of the aqueous solutions were colorless. The solutions of DNQ, 4-31, and 4-37 were faintly yellow while 4-8, 4-14 and 4-41 were substantially more colored. The solution of 4-8, 4-14 and 4-41 were diluted 10-fold with PBS prior to LC-MS analysis to ensure that the concentrations fell within the range of the calibration curve.

[2] = Solubility in 20% HPβCD solution (pH modulation protocol); type: physicochemical; conditions: 20% HPβCD in pH 7.4 PBS, pH 7.4, aqueous with cosolvent or surfactant or cyclodextrin, thermodynamic from solid; 20% HPβCD; Table 4.3
Method: The protocol for formulating DNQ compounds in HPβCD is as follows: the DNQ compound is slurried in a 20% solution of HPβCD in pH 7.4 PBS and the pH is then increased by the addition of 10 M NaOH to induce dissolution of the DNQ compound. The pH is returned to pH 7.5-8.0 by the careful addition of 1 M HCl. A 3.3 mM solution of the DNQ compound can be made by this method which is stable at least 24 hours. This represents a 30-fold increase in solubility of DNQ over PBS alone.
Although we were pleased to find active derivatives of DNQ that were up to 4-fold more soluble in water—sufficiently soluble for continuous IV infusion for human administration—this level of solubility was insufficient for animal studies by bolus injection. […] We used the same pH modulation protocol outlined for DNQ described in the specification above. The results are organized in Table 4.3 and FIG. 8. While all compounds were more soluble in HPβCD than in buffer alone, the fold increase in solubility varied widely.

[3] = Solubility in organic solvents; type: physicochemical; conditions: for solubility: organic solvent or mixture, thermodynamic from solid
Method: The solubility of DNQ derivatives in organic solvents was determined by measuring the amount of a given solvent required to dissolve a known amount of compound. Solvent was added to the compound in 50 μL aliquots and the slurry was sonicated. […] Solubility was assessed in DMSO, dichloromethane, and 33% methanol in dichloromethane (FIGS. 9, 10, and 11, respectively).

[4] = Maximum tolerated dose in mice; conditions: mouse, ip
From the text: Because of the difficulty of repeated tail vein injections in mice, our group is using IP administration of compound.
All of these derivatives are currently being assessed for their maximum tolerated dose (MTD) in healthy mice. Compounds are formulated in HPβCD and delivered by IP injection to two mice once daily for five days.

[5] = Solubility in organic solvents; type: physicochemical; conditions: organic solvent or mixture, thermodynamic from solid; THF; Table 1
PAR-PARP1 = assay: PARP1 hyperactivation (PAR-PARP1 formation) in vivo in orthotopic Lewis Lung Carcinoma model, immunoblotting; parameters: species or system NOD/SCID mice; conditions: iv at or near MTD
Method: Antibodies that specifically detect poly(ADP-ribosyl)ated α-PAR (BD Pharmingen, San Jose, Calif.) proteins (e.g., the most abundant species, poly(ADP-ribosyl)ated PARP1, PAR-PARP1) and α-PARP1 (sc-8007, Santa Cruz Biotechnology) antibodies were used at 1:4000 and 1:2000 dilutions, respectively. α-Tubulin was monitored for loading.
To generate a known control to monitor the formation of poly(ADP-ribose)ylated-polymerase 1 (PAR-PARP1) in cells, LLC tumor cells were treated in vitro with hydrogen peroxide (H2O2, 0.5 μM) for 15 minutes, and whole cell protein lysates were separated by SDS-PAGE using the α-PAR (BD Pharmingen, San Jose, Calif.) antibody described above. PAR-PARP1 formation was then assessed by immunoblot analyses as previously described in Huang et al., Cancer Research, 2012.
LLC cells (1.0×10^6) were intravenously (iv) injected into the tail veins of female 18-20 gram NOD/SCID mice. Establishment of tumor nodules in the lungs of exposed mice were confirmed by bioluminescence and mice (5/group) were treated intravenously (via tail vein injection) with: (i) hydroxypropyl-beta-cyclodextrin (HPRCD) vehicle alone; (ii) DNQ (7.5 mg/kg); (ii) DNQ-87 (14 mg/kg); (iii) DNQ-107 (10 mg/kg); or (vi) DNQ 9-251 (20 mg/kg) dissolved in HPRCD. At specific times indicated (in mins) after injection of vehicle or drug, mice were euthanized, lungs removed and tumor nodules harvested. […] Extracts from cells treated with H2O2 were used as controls for monitoring PAR-PARP1 formation in LLC tumor cells.

[6] = MCF7, Table 1, read-out: MCF7 IC50
[7] = MCF7, classification in figure legends of FIGS. 7-11, read-out: IC50 ("active" / generally "inactive" compounds)
[8] = 2:1 CH2Cl2:MeOH, Table 4.3, read-out: Solubility in 2:1 CH2Cl2:MeOH
[9] = CH2Cl2:MeOH 2:1, Table 1, read-out: CH2Cl2:MeOH 2:1 solubility
[10] = CH2Cl2, Table 1, read-out: CH2Cl2 solubility
[11] = DMSO, Table 1, read-out: DMSO solubility
[12] = MCF7, 2 h, Table 4.1, 2 h exposure, no DIC, ± s.e., read-out: IC50 vs. MCF-7 cells
[13] = MCF7, read-out: IC50 vs. MCF-7 cells +25 μM DIC, Table 4.1, +25 μM DIC, ± s.e.

Chain of NQO1 (P15559 whole entry): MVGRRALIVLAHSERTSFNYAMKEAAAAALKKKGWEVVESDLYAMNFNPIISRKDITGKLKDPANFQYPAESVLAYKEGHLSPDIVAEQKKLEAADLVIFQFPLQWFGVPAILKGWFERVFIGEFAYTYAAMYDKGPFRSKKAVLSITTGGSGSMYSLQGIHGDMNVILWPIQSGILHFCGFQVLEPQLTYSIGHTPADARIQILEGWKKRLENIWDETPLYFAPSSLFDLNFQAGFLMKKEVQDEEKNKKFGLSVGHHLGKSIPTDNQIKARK

SMILES	IC50 (MCF-7 cells; [6]) [nM]	IC50 (MCF-7 cells; [7]) [nM]	Fold Protection of MCF7 cells w/ 25 μM dicoumarol (MCF-7 cells)	NQO1 Initial Velocity @ 1 μM (NQO1)	solubility at 30 min [1] [mM]	solubility [2] [mM]	Solubility in CH2Cl2 ([3]; CH2Cl2, Table 4.3) [mM]	Solubility in DMSO ([3]; DMSO, Table 4.3) [mM]	solubility [3, 8] [mM]	solubility [3, 9] [mM]	solubility [3, 10] [mM]	solubility [3, 11] [mM]	MTD at 5 days ([4]; in vivo)	solubility [5] [mM]	IC50 (MCF-7 cells; [12]) [nM]	IC50 (MCF-7 cells; [13]) [nM]	Fold protection by DIC (MCF-7 cells; Table 4.1)	also measured
CCCCCCn1c2c(c(C)cc1=O)C(=O)c1c(C)cc(=O)[nH]c1C2=O [Compound 9-257]	260 ± 40	< 500	11	1850 ± 60	< 0.005	6 (≈ 2130 µg/mL)	32 (≈ 11300 µg/mL)	18 (≈ 6380 µg/mL)	140 (≈ 49600 µg/mL)	140 (≈ 49600 µg/mL)	32 (≈ 11300 µg/mL)	18 (≈ 6380 µg/mL)	≥ 16 mg/kg and ≥ 44 µmol/kg	27 (≈ 9570 µg/mL)	–	–	–	IC50 (MCF-7 cells; MCF7, Table 4.2, no DIC, ± s.e., read-out: IC50 vs. MCF-7 cells): 290 ± 40 nM; IC50 (MCF-7 cells; MCF7, read-out: IC50 vs. MCF-7 cells +25 μM DIC, Table 4.2, +25 μM DIC, ± s.e.): 3000 ± 600 nM; Fold protection by DIC (MCF-7 cells; Table 4.2): 10
CCCn1c2c(c(C)cc1=O)C(=O)c1c(C)cc(=O)[nH]c1C2=O [Compound 10-41]	120 ± 10	< 500	10	1590 ± 70	0.039 (≈ 12.2 µg/mL)	6.3 (≈ 1970 µg/mL)	3.9 (≈ 1220 µg/mL)	8.9 (≈ 2780 µg/mL)	32 (≈ 9990 µg/mL)	32 (≈ 9990 µg/mL)	3.9 (≈ 1220 µg/mL)	8.9 (≈ 2780 µg/mL)	≥ 14 mg/kg and ≥ 44 µmol/kg	3.4 (≈ 1060 µg/mL)	130 ± 10	1300 ± 400	10	–
CCc1cc(=O)n(C)c2c1C(=O)c1c(C)cc(=O)[nH]c1C2=O [Compound 107]	280	< 500	4.5	1400 ± 100	0.439 (≈ 131 µg/mL)	4.4 (≈ 1310 µg/mL)	5.5 (≈ 1640 µg/mL)	31 (≈ 9250 µg/mL)	37 (≈ 11000 µg/mL)	37 (≈ 11000 µg/mL)	5.5 (≈ 1640 µg/mL)	31 (≈ 9250 µg/mL)	–	4.7 (≈ 1400 µg/mL)	280 ± 60	1300 ± 400	4.5	MTD at 5 days [4]: ≤ 10 mg/kg and ≤ 35 µmol/kg; PAR-PARP1 formation in tumor tissue (PAR-PARP1): higher levels of PAR-PARP1 formation
CCn1c2c(c(C)cc1=O)C(=O)c1c(C)cc(=O)[nH]c1C2=O [Compound 109]	530	< 500	4.5	1500 ± 100	0.319 (≈ 95.2 µg/mL)	5.7 (≈ 1700 µg/mL)	9.5 (≈ 2830 µg/mL)	24 (≈ 7160 µg/mL)	19 (≈ 5670 µg/mL)	19 (≈ 5670 µg/mL)	9.5 (≈ 2830 µg/mL)	24 (≈ 7160 µg/mL)	10 mg/kg and 35 µmol/kg	18 (≈ 5370 µg/mL)	200 ± 10	3400 ± 200	17	–
